Measured values as given in patent US8119627B2 (Sterix Limited, priority 2005, dated 2012).
Counter-ions that a name gives are not always drawn.

Assays:
human 17β-HSD3 = biological target: T1, human 17β-HSD3 (Homo sapiens, UniProt P37058); assay: 17β-Hydroxysteroid dehydrogenase Type 3 activity in stably transfected 293-EBNA cells (3H-androstenedione to testosterone conversion); assay type: cell-based; conditions: 10 μM test compound; 293-EBNA cells stably transfected with 17β-HSD Type 3; 2-3 nM 3H-androstenedione; 2 hours
T1 construct: expressed in transfected cells; host or cells: 293-EBNA cells (human), stably transfected
T1 sequence (P37058 1-310): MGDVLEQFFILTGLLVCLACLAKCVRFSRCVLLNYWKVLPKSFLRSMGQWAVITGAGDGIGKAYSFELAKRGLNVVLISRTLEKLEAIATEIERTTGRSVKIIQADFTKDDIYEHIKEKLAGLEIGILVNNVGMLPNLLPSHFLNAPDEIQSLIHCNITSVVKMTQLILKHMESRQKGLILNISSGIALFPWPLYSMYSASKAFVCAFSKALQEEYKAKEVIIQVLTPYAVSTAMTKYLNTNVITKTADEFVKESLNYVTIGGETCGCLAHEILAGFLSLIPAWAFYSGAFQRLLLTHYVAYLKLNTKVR
Method: Assay Protocol—17β-Hydroxysteroid Dehydrogenase Type 3 Activity in the Presence of Regulatory Agents
293-EBNA cells stably transfected with 17β-HSD Type 3 were plated at 50,000 cells/well in 24 well plates in complete growth medium. After 48 hours 2-3 nM ^3H-Androstenedione in assay medium (500 ml MEME medium with 5 ml 100× Pen/Strep, 5 ml 100×L-Glutamine, 5 ml 100×NEAA and 5 ml 7.5% sodium bicarbonate solution) was added with or without test compound at 1.5 ml/well (triplicate), and the cells incubated at 37° C.
Two hours later 1 ml medium was removed from each well and placed in a 125×16 mm glass test tube containing 25 μl of recovery solution (5000 dpm ^14C-Testosterone and 25 μg unlabelled Testosterone). Ether (4 ml) was added and the tubes vortexed at high speed for 2×30 sec. After the samples had settled into two phases they were snap-frozen in a dry ice/methanol bath. The upper organic phase was decanted into 75×12 mm tubes and evaporated to dryness under an airstream using a sample concentrator (TECHNE) at 40° C. The samples were resuspended in ether (8 drops, then a further 3), spotted onto silica 60 F254 20 cm×20 cm TLC plates, and separated using a 4:1 v/v dichloromethane:ethyl acetate mobile phase.
After drying the plates, the major spots were marked under a UV lamp, cut out, and placed in individual scintillation vials containing 0.5 ml methanol. These were then shaken lightly and allowed to stand for 15 min before adding 10 ml of EcoScint A (scintillation fluid) to each tube along with 0.5 ml assay medium, and counted in a scintillation spectrometer (Beckman) using a program for dual [^3H/^14C] isotopes. The number of cells/well was then counted using a Coulter counter (Beckman).
The inhibitory activity of the test compounds is then assessed by calculating the amount of product formed correcting for crossover between isotope counts, recovery, dilution and non-enzymatic degradation (fmol/hr/million cells) with and without inhibitor, (% inhibition).
Compounds were tested at 10 μM for inhibition of human 17β-HSD3 with typically […] human 293-EBNA cells/well.

Compound	inhibition at 10 µM (human 17β-HSD3)	melting point
O=C(c1ccccc1)N1CCC(Nc2ccccc2Oc2ccc(Cl)cc2)CC1	> 60%	
O=C(Nc1ccccc1Oc1ccc(Cl)cc1Cl)C1CCN(S(=O)(=O)c2cc(Cl)ccc2Cl)CC1		194 to 196 °C
CC(C)C(=O)N1CCC(NC(=O)c2ccccc2Oc2ccc(Cl)cc2Cl)CC1		51 to 54 °C
O=C(NC1CCN(C(=O)c2ccccc2)CC1)c1ccccc1Oc1ccc(Cl)cc1Cl		63 to 66 °C
CC(=O)N1CCC(C(=O)Nc2ccccc2Oc2cc(Cl)cc(Cl)c2)CC1 [STX1604, 1-Acetyl-piperidine-4-carboxylic acid [2-(3,5-dichloro-phenoxy)-phenyl]-amide]	20 to 60%	
O=C(Nc1ccccc1Oc1cc(Cl)cc(Cl)c1)C1CCN(C(=O)c2ccccc2)CC1 [STX1605, 1-Benzoyl-piperidine-4-carboxylic acid [2-(3,5-dichloro-phenoxy)-phenyl]-amide]	20 to 60%	
CC(=O)N1CCC(C(=O)Nc2ccccc2Oc2ccc(C(F)(F)F)cc2)CC1 [STX1606, 1-Acetyl-piperidine-4-carboxylic acid [2-(4-trifluoromethyl-phenoxy)-phenyl]-amide]	20 to 60%	
O=C(Nc1ccccc1Oc1ccc(C(F)(F)F)cc1)C1CCN(C(=O)c2ccccc2)CC1 [STX1607, 1-Benzoyl-piperidine-4-carboxylic acid [2-(4-trifluoromethyl-phenoxy)-phenyl]-amide]	20 to 60%	
O=C(Nc1ccccc1Oc1ccc(Cl)cc1Cl)C1CCN(C(=O)c2ccccc2)CC1 [STX1613, 1-Benzoylpiperidine-4-carboxylic acid [2-(2,4-dichloro-phenoxy)phenyl]amide]	20 to 60%	176 to 177 °C
CC(=O)N1CCC(C(=O)Nc2ccccc2Oc2ccc(Cl)cc2Cl)CC1 [STX1614, 1-Acetylpiperidine-4-carboxylic acid [2-(2,4-dichlorophenoxy)phenyl]amide]	> 60%	194 to 196 °C
O=C(Nc1ccccc1Oc1ccc(Cl)cc1)C1CCN(C(=O)c2ccccc2)CC1 [STX1615, 1-Benzoylpiperidine-4-carboxylic acid [2-(4-chlorophenoxy)phenyl]amide]	< 20%	158 to 160 °C
CC(=O)N1CCC(Nc2ccccc2Oc2ccc(Cl)cc2Cl)CC1 [STX1616, 1-{4-[2-(2,4-Dichlorophenoxy)phenylamino]piperidin-1-yl}ethanone]	> 60%	145 to 146 °C
CC(=O)N1CCC(C(=O)Nc2ccccc2Oc2ccc(Cl)cc2)CC1 [STX1617, 1-Acetylpiperidine-4-carboxylic acid [2-(4-chlorophenoxy)phenyl]amide]	20 to 60%	195 to 196 °C
O=C(c1ccccc1)N1CCC(Nc2ccccc2Oc2ccc(Cl)cc2Cl)CC1 [STX1623, {4-[2-(2,4-Dichlorophenoxy)phenylamino]piperidin-1-yl}phenylmethanone]	> 60%	
CC(=O)N1CCC(C(=O)Nc2ccccc2Oc2ccc(OC(F)(F)F)cc2)CC1 [STX1624, 1-Acetyl-piperidine-4-carboxylic acid [2-(4-trifluoromethoxy-phenoxy)-phenyl]-amide]	20 to 60%	
O=C(Nc1ccccc1Oc1ccc(OC(F)(F)F)cc1)C1CCN(C(=O)c2ccccc2)CC1 [STX1625, 1-Benzoyl-piperidine-4-carboxylic acid [2-(4-trifluoromethoxy-phenoxy)-phenyl]-amide]	20 to 60%	
CC(=O)N1CCC(Nc2ccccc2Oc2ccc(Cl)cc2)CC1 [STX1629, 1-{4-[2-(4-chlorophenoxy)phenylamino]-piperidin-1-yl}-ethanone]	> 60%	
CC(C)(C)C(=O)N1CCC(Nc2ccccc2Oc2ccc(Cl)cc2)CC1 [STX1631, 1-{4-[2-(4-chlorophenoxy)phenylamino]-piperidin-1-yl}-2,2-dimethylpropan-1-one]	20 to 60%	
CC(=O)N1CCCC(Nc2ccccc2Oc2ccc(Cl)cc2)CC1 (stereo not shown) [STX1762, 1-(4-(2-(4-chlorophenoxy)phenylamino)azepan-1-yl)ethanone]	> 60%	
O=C(c1ccco1)N1CCC(Nc2ccccc2Oc2ccc(Cl)cc2Cl)CC1 [STX1779, {4-[2-(2,4-Dichloro-phenoxy)-phenylamino]-piperidin-1-yl}-furan-2-yl-methanone]	20 to 60%	
CC(=O)NC(CC(=O)Nc1ccccc1Oc1ccc(Cl)cc1)c1ccccc1 (stereo not shown) [STX1858, N-[2-(4-chlorophenoxy)phenyl]-3-acetamido-3-phenylpropanamide]	< 20%	
CC(=O)NCCC(=O)Nc1ccccc1Oc1ccc(Cl)cc1 [STX1859, N-[2-(4-chlorophenoxy)phenyl]-3-acetamidopropanamide]	< 20%	
CC(=O)N1CCC(Nc2ccccc2-c2ccc(Cl)cc2)CC1 [STX2044, 1-[4-(4′-Chlorobiphenyl-2-ylamino)piperidin-1-yl]ethanone]	20 to 60%	
CC(=O)N1CCC(Nc2ccccc2-c2ccccc2Oc2ccccc2)CC1 [STX2048, 1-[4-(2′-Phenoxybiphenyl-2-ylamino)piperidin-1-yl]ethanone hydrochloride]	20 to 60%	
CC(=O)N1CCC(Nc2ccccc2Oc2ccc(Cl)cc2)c2ccccc21 (stereo not shown) [STX2138]	20 to 60%	
CC(=O)N1CCCC(Nc2ccccc2Oc2ccc(Cl)cc2)c2ccccc21 (stereo not shown) [STX2171, 1-Acetyl-5-[2-(4-Chloro-phenoxy)-phenylamino]-2,3,4,5-tetrahydro-benzo[b]azepine]	> 60%	
CC(=O)N1CCC(Nc2ccccc2Oc2ccc(Cl)cc2)CC1c1ccccc1 (stereo not shown) [STX2419, 1-(4-(2-(4-Chlorophenoxy)phenylamino)-2-phenylpiperidin-1-yl)ethanone]	20 to 60%	
CC(=O)N1CCC(Nc2ccccc2Oc2ccc(Cl)cc2)CC1C(C)C (stereo not shown) [STX2523, 1-(4-(2-(4-Chlorophenoxy)phenylamino)-2-iso-propylpiperidin-1-yl)ethanone]	> 60%	
CC(=O)N1CC(N(Cc2ccccc2Oc2ccc(Cl)cc2)C(C)=O)Cc2ccccc21 (stereo not shown) [STX2525, N-(1-Acetyl-1,2,3,4-tetrahydro-quinolin-3-yl)-N-[2-(4-chloro-phenoxy)-benzyl]-acetamide]	20 to 60%	
